Patent US9187539B2, “Compositions having antiangiogenic activity and uses thereof” (The Johns Hopkins University, priority 2005, dated 2015)
“Also recorded” adds a separate entry of the source.

Experiments:
[1] = test system: human umbilical vein endothelial cells (HUVECs); test: HUVEC proliferation assay (WST-1), 3-day, 2,000 cells per well; format: cell-based; details: 3-day assay; for anti-proliferative activity in words: overall; for anti-proliferative activity (maximum or stated level), scaled so that TNP-470 = 100%: 0.01-30 μg/ml; for anti-proliferative activity in words at high peptide concentration: high/highest applied concentration (30 μg/ml where stated)
Method: In addition to the 2 and 4 day proliferation experiment where 5,000 cells per well were seeded, the effects of the peptides on the proliferating ability of HUVECs were also studied using cells seeded at a density of 2,000 cells per well. This lower cell seeding density allowed the experiment to be extend for an additional day without changing the cell medium. The effects of the peptides when applied to the cells for 3 consecutive days is also reported herein. The proliferation assay again involved two steps. During the first step 2,000 cells per well for a 96-well plate were seeded without any extracellular matrix substrate on the wells overnight (8 hours). The initial cell culture medium was removed using a multichannel pipetor. To synchronize the cells, the cells were serum starved for 4 hours and the candidate peptides were applied. During serum starvation the cell culture medium was changed from a “full” medium to the “basal” medium, which contained no growth factors or serum. Serum starvation for 4 hours had no effect on the proliferation of the cells. For this assay, the logarithmic scale of four different concentrations of 0.01 μg/ml, 0.1 μg/ml, 1 μg/ml and 10 μg/ml of peptide was used. In addition, a larger concentration of 30 μg/ml peptide was also applied. Each of the concentrations was again tested in quadruplicate. After the third day of peptide application the WST-1 dye was applied for approximately 2 to 4 hours (usually after 3 hours the color saturates). The proliferation was later tested on the ELISA plate reader as described for the 2 and 4 day assay. Note that the 2- and 4-day and the 3-day protocols differed in that 5,000 cells/well versus 2,000 cells/well seeded, respectively.

[2] = test system: human umbilical vein endothelial cells (HUVECs); test: HUVEC proliferation assay (WST-1), 2- and 4-day, 5,000 cells per well; format: cell-based; details: for concentration-response profile in words: 2- and/or 4-day assay
Method: The effect of the various peptides on cell proliferation was assayed, by administering the peptides to human umbilical vein endothelial cells (HUVECs) in culture. 45 peptides belonging to four distinct families of proteins including the thrombospondin-1 containing proteins, the C-X-C chemokines, collagen derived peptides and peptides from tissue inhibitors of metalloproteinases were tested. The potency of each of the peptides was tested using the proliferation assay at 2 days and 4 days following administration of the peptides and a similar assay using a different cell density at 3 days. In the four-day experiments, the cell medium was changed after the second day of incubation and the peptide was replaced at the initial concentration together with the medium. TNP-470 is an antiangiogenic compound that was used as a positive control for assessing anti-angiogenic efficacy. The activity of each polypeptide was, therefore, expressed as a percentage of TNP-470 activity, i.e., the optical density obtained experimentally is scaled such that the negative control is 0% and the positive control is 100% as explained below (FIG. 4). Each plate included a well having HUVEC cells that received 0.1 μg/ml TNP-470. For example, a peptide having the same effect on endothelial cell proliferation would have 100% of the activity of TNP-470. Note that activity could exceed 100%. In this assay, the effects of the predicted anti-angiogenic fragments on the ability of HUVECs to proliferate was characterized. […] A commonly used methodology to test for proliferation is to monitor the viability and metabolic activity of endothelial cells, in the presence of the anti-angiogenic fragments at different concentrations and various time steps. The cell proliferation reagent WST-1 was used as a substrate/assay to measure the metabolic activity of viable cells. WST-1 is a colorimetric, non-radioactive assay and can be performed in a microplate. It is suitable for measuring cell proliferation, cell viability or cytotoxicity. The assay is based on the reduction a red tetrazolium salt, WST-1, by viable, metabolically active, cells to form the yellow formazan crystals soluble in the cell medium. […] The cells are cultured described above. Once cells have reached 80% confluence they are trypsinized and resuspended in EGM-2. The cell density is estimated using a hemocytometer. All of the endothelial cells used were from passage 4 to passage 8. The proliferation assay involved two steps. During the first step the cells, approximately 5,000 cells per well for a 96-well plate, were seeded without any extracellular matrix substrate on the wells overnight (8 hours). The initial cell culture medium was removed using a multichannel pipetor and the candidate peptides were applied. A logarithmic scale of four different concentrations of 0.01 μg/ml, 0.1 μg/ml, 1 μg/ml and 10 μg/ml of each peptide was used. Each of the concentrations was tested in quadruplicate. The viability of the cells was challenged at 2 and 4 days upon the application of the peptide. As a positive control for decreased viability, 0.1 μg/ml of TNP-470 (O-(chloro-acetyl-carbamoyl) fumagillol, a synthetic analogue of fumagillin; TNP-470 was provided by NCI, was provided along with the medium, and as a negative control for normal viability, the cells were cultured without the addition of any agent. The cells were then incubated with 10 μl per well of the red WST-1 reagent for approximately 2 to 4 hours. During this incubation period, viable cells converted, in their mitochondria, the red WST-1 to the yellow formazan crystals which dissolve in the medium. The second step of the assay involved the quantification of the changes in proliferation which was performed by measuring the change in color after lysing the cells. The samples were read using the ELISA plate reader Victor3 V (Perkin Elmer) at a wavelength of […]. The amount of color produced is directly proportional to the number of viable cells. […]

[3] = 4 days of peptide application, 0.01-10 μg/ml
[4] = 10 μg/ml peptide, 2- and 4-day assay
[5] = 2- and 4-day assay, day not specified or constant throughout the four days
[6] = 2 days of peptide application, 0.01-10 μg/ml
[7] = 2- and 4-day assay, day not specified

## AAPFLECQGRQGTCHFFAN [SEQ ID NO: 87, α4CIV CAA56943.1: 1628-1646]
[1]
  concentration-response profile in words: activity increased with increasing the applied peptide concentration
  anti-proliferative activity in words: similar
[2]; 2 days of peptide application
  anti-proliferative activity in words: intermediate activity

## ASWSACSVSCGGGARQRTR [SEQ ID NO: 45, Fibulin-6 CAC37630.1: 1745-1763]
[1]
  concentration-response profile in words: biphasic response
  peptide concentration at which maximum activity was observed: 0.1 µg/mL
  anti-proliferative activity (maximum or stated level), scaled so that TNP-470 = 100%: 20%
[2]
  concentration-response profile in words: biphasic activity
[2]; 2 days
  peptide concentration at which maximum activity was observed: 0.1 µg/mL
[2]; [3]
  anti-proliferative activity (maximum or stated level), scaled so that TNP-470 = 100%: approximately 30%

## DGRELCLDPKENWVQRVVEKFLK [SEQ ID NO: 110, IL-8/CXCL8 AAP35730.1: 72-94]
[1]
  anti-proliferative activity in words at high peptide concentration: higher
[2]; [4]
  anti-proliferative activity, TNP-470 = 100%: 20%

## DGRKICLDPDAPRIKKIVQKKL [SEQ ID NO: 114, THBG-β/CXCL7 AAB46877.1: 100-121]
[2]; [4]
  anti-proliferative activity, TNP-470 = 100%: 15%

## ECLWTDMLSNFGYPGYQSKHYACI [SEQ ID NO: 155, TIMP 3 AAA21815.1: 148-171]
[2]; [5]
  anti-proliferative activity (maximum or stated level), scaled so that TNP-470 = 100%: 30%
[2]; [6]
  anti-proliferative activity (maximum or stated level), scaled so that TNP-470 = 100%: 30%

## GPWAPCSASCGGGSQSRS [SEQ ID NO: 48, Papilin NP_775733.2: 342-359]
[2]; [5]
  anti-proliferative activity (maximum or stated level), scaled so that TNP-470 = 100%: 30%

## GPWEDCSVSCGGGEQLRSR [SEQ ID NO: 63, SCO-spondin XP_379967.2: 3781-3799]
[1]
  anti-proliferative activity (maximum or stated level), scaled so that TNP-470 = 100%: 25%
[2]; [5]
  anti-proliferative activity (maximum or stated level), scaled so that TNP-470 = 100%: ~15%
[2]; 2- and 4-day assay, overall
  anti-proliferative activity in words: low anti-proliferative activity

## GPWEPCSVTCSKGTRTRRR [SEQ ID NO: 49, Properdin AAP43692.1: 143-161]
[1]
  anti-proliferative activity in words at high peptide concentration: significantly increased
[2]; [7]
  peptide concentration at which maximum activity was observed: 0.01 µg/mL
[2]; [5]
  anti-proliferative activity (maximum or stated level), scaled so that TNP-470 = 100%: 30%
[2]
  concentration-response profile in words: biphasic response
[2]; [3]
  anti-proliferative activity (maximum or stated level), scaled so that TNP-470 = 100%: 20%

## GPWERCTAQCGGGIQARRR [SEQ ID NO: 60, Semaphorin 5A NP_003957.1: 660-678]
[1]
  anti-proliferative activity (maximum or stated level), scaled so that TNP-470 = 100%: 35%
[2]; [7]
  peptide concentration at which maximum activity was observed: higher than 1 μg/ml
[2]; [5]
  anti-proliferative activity (maximum or stated level), scaled so that TNP-470 = 100%: 25%
[2]; 2 days of peptide application
  anti-proliferative activity in words: minimum anti-proliferative activity
[2]; 4 days of peptide application
  anti-proliferative activity in words: intermediate activity

## GPWGDCSRTCGGGVQFSSR [SEQ ID NO: 7, ADAMTS-4 CAH72146.1: 527-545]
[2]; 4 days
  peptide concentration at which maximum activity was observed: 10 µg/mL
[2]; [3]
  anti-proliferative activity (maximum or stated level), scaled so that TNP-470 = 100%: 35%

## GPWGECSRTCGGGVQFSHR [SEQ ID NO: 14, ADAMTS-8 Q9UP79: 534-552]
[1]
  concentration-response profile in words: biphasic response
[2]; [4]
  anti-proliferative activity in words at 10 μg/ml: reduced
[2]
  concentration-response profile in words: biphasic response
[2]; 2 days
  peptide concentration at which maximum activity was observed: 1 µg/mL
[2]; [6]
  anti-proliferative activity (maximum or stated level), scaled so that TNP-470 = 100%: 35%
[2]; 4 days
  peptide concentration at which maximum activity was observed: 1 µg/mL
[2]; [3]
  anti-proliferative activity (maximum or stated level), scaled so that TNP-470 = 100%: 30%

## KCHGHGVCNSNKN [SEQ ID NO: 1, ADAM-9 Q13443: 649-661]
[2]; [5]
  anti-proliferative activity (maximum or stated level), scaled so that TNP-470 = 100%: ~20%

## LCMTKSDCYQPAWYIHEGFYNLSG [SEQ ID NO: 159, reference compound]
[2]; 2- and 4-day assay, overall
  anti-proliferative activity in words: not statistically significant

## LRRFSTMPFMFCNINNVCNF [SEQ ID NO: 89, α5CIV AAC27816.1: 1510-1529]
[1]
  anti-proliferative activity in words at high peptide concentration: increased even more
  anti-proliferative activity in words: reproducible
[2]; [4]
  anti-proliferative activity, TNP-470 = 100%: 80%

## MQCHGRGVCNNRKN [SEQ ID NO: 2, ADAM-12 O43184: 662-675]
[1]
  concentration-response profile in words: activity increasing as the peptide concentration increased
[2]; 2 days of peptide application
  anti-proliferative activity in words: showed activity

## NGKEICLDPEAPFLKKVIQKILD [SEQ ID NO: 95, ENA-78/CXCL5 AAP35453.1: 86-108]
[1]
  anti-proliferative activity in words at high peptide concentration: high activity
  anti-proliferative activity in words: reproducible over all tested concentrations
[2]; 0.01 μg/ml peptide, 2 days
  anti-proliferative activity, TNP-470 = 100%: approximately 30%

## NGKKACLNPASPMVQKIIEKIL [SEQ ID NO: 106, GRO-γ/MIP-2β/CXCL3 AAA63184.1: 79-100]
[1]
  peptide concentration at which maximum activity was observed: 0.01 µg/mL
[2]; [7]
  peptide concentration at which maximum activity was observed: 0.01 µg/mL
[2]; [3]
  anti-proliferative activity (maximum or stated level), scaled so that TNP-470 = 100%: 15%

## NGKQVCLDPEAPFLKKVIQKILDS [SEQ ID NO: 98, GCP-2/CXCL6 AAH13744.1: 86-109]
[1]
  concentration-response profile in words: biphasic behavior
  anti-proliferative activity in words at high peptide concentration: increased
[2]; 0.01 μg/ml peptide, 2 days
  anti-proliferative activity, TNP-470 = 100%: 30%
[2]; [4]
  anti-proliferative activity in words at 10 μg/ml: Virtually no anti-proliferative activity
[2]; [5]
  anti-proliferative activity (maximum or stated level), scaled so that TNP-470 = 100%: 35%
[2]
  concentration-response profile in words: biphasic behavior; also recorded: biphasic response

## NGRKACLNPASPIVKKIIEKMLNS [SEQ ID NO: 102, GRO-α/CXCL1 AAP35526.1: 80-103]
[1]
  anti-proliferative activity in words at high peptide concentration: significantly increased
[2]; [4]
  anti-proliferative activity in words at 10 μg/ml: statistically insignificant
[2]; [5]
  anti-proliferative activity (maximum or stated level), scaled so that TNP-470 = 100%: 15%

## QDVFNKDGKVILLSPQAICLPKEK [SEQ ID NO: 158, reference compound]
[2]; 2- and 4-day assay, overall
  anti-proliferative activity in words: not statistically significant

## QPWGTCSESCGKGTQTRAR [SEQ ID NO: 44, Fibulin-6 CAC37630.1: 1688-1706]
[1]
  concentration-response profile in words: activity increased with increasing peptide concentration
[2]
  concentration-response profile in words: biphasic behavior
[2]; 4 days
  peptide concentration at which maximum activity was observed: 0.01 µg/mL
[2]; [3]
  anti-proliferative activity (maximum or stated level), scaled so that TNP-470 = 100%: ~40%

## SPWTKCSATCGGGHYMRTR [SEQ ID NO: 61, Semaphorin 5A NP_003957.1: 848-866]
[2]; 2- and 4-day assay, overall
  anti-proliferative activity in words: no anti-proliferative activity

## SQWSPCSRTCGGGVSFRER [SEQ ID NO: 47, Papilin NP_775733.2: 33-51]
[2]; 2- and 4-day assay, overall
  anti-proliferative activity in words: minimal anti-proliferative activity

## TSWSPCSASCGGGHYQRTR [SEQ ID NO: 62, Semaphorin 5B AAQ88491.1: 916-934]
[2]; [5]
  anti-proliferative activity (maximum or stated level), scaled so that TNP-470 = 100%: 10%
